{"source": "patent US20220349887A1", "about": "“Compositions and Methods for Multiplex Detection of Microorganisms Using Peptide-Tagged Recombinant Infectious Agents” (priority 2021, published 2022)", "assay_in_all_cases": "Antibiotic susceptibility testing in human blood: cefoxitin enrichment, then MP115.NL/SAPJV1.NL phage infection, luminescence", "assay_type_in_all_cases": "cell-based", "key": {"[1]": {"system": "Methicillin-resistant Staphylococcus aureus (MRSA) CDC AR0480", "details": "110 CFU/Well", "protocol": "(§1) Methicillin-resistant Staphylococcus aureus (MRSA) strains (ATCC BAA-1720, CDC AR0480) and the methicillin-susceptible Staphylococcus aureus (MSSA) strain (ATCC 12600) were grown to log phase (OD600 ranged from 0.16 to 0.4) in tryptic soy broth (TSB). Cultures were diluted in TSB to obtain the desired burden, which was confirmed by plating on TSB agar for colony forming units (CFU). 50 μL of each dilution was added to test strips. When indicated, some strips contained bound anti-NANOLUC® antibody on medium-binding plates for capture. 85 μL, of either TSB or human blood diluted with TSB and sodium polyanethole sulfonate (SPS) was added. Human blood was collected from a single donor using sodium heparin as an anti-coagulant. Each well then received 15 μL of either TSB or 22 μg/mL cefoxitin (FOX) in TSB. The final concentration of each component in the well (150 μL volume) was 25% human blood, 0.0375% SPS, and 2.2 μg/mL FOX. Test strips were then sealed with cover film and incubated at 37° C. for two hours. After this selective enrichment, 20 μL of phage working stock was added to wells containing the TSB matrix. Phage working stock contained 8×10^7 plaque forming units per mL (pfu/mL) of MP115.NL and 6.9×10^8 pfu/mL of SAPJV1.NL. For wells containing blood matrix, 0.5 mg of recombinant Staphylococcal protein A (pro-356, Prospec, Ness-Ziona, Israel) per well was included within the 20 μL of phage working stock. Assay strips were once again sealed with cover film and incubated at 37° C. for three hours. Following infection, anti-NanoLuc capture and controls strips were washed three times with 300 μL PBS-T (10 mM sodium phosphate, 150 mM NaCl, 0.05% Tween 20, pH 7.4). Washes were conducted using an automatic plate washer (AccuWash, Thermo Fisher Scientific, Waltham, Mass., USA). 100 μL of NanoGlo buffer (Promega, Madison, Wisc., USA) containing 1 μL of NanoGlo substrate (Promega, Madison, Wisc., USA) was added to each well. “No wash+No Capture” strips were not washed and instead received 65 μL of a master mix containing 50 μL NanoGlo Buffer, 15 μL TSB, and 1 μL NanoGlo substrate. Following a 3 minute wait period, the signal output of each sample as relative light units (RLU) was determined using a GloMax Navigator (Promega, Madison, Wisc., USA). Signal over background (SB) was calculated by dividing the RLU from each sample from the RLU observed in the media control for that test matrix (Table 2)."}, "[2]": {"system": "methicillin-susceptible Staphylococcus aureus (MSSA) ATCC 12600", "details": "130 CFU/Well", "protocol": "as §1"}, "[3]": {"system": "Methicillin-resistant Staphylococcus aureus (MRSA) ATCC BAA-1720", "details": "41 CFU/Well", "protocol": "as §1"}, "[4]": {"details": "5% BSA Blocked Strips, Blood + FOX 2.2 μg/mL"}, "[5]": {"details": "5% BSA Blocked Strips, TSB + FOX 2.2 μg/mL"}, "[6]": {"details": "Anti-NanoLuc Capture Strips, Blood + FOX 2.2 μg/mL"}, "[7]": {"details": "Anti-NanoLuc Capture Strips, TSB + FOX 2.2 μg/mL"}, "[8]": {"details": "No Capture + No Wash, Blood + FOX 2.2 μg/mL"}, "[9]": {"details": "No Capture + No Wash, TSB + FOX 2.2 μg/mL"}}}
{"smiles": "CO[C@@]1(NC(=O)Cc2cccs2)C(=O)N2C(C(=O)O)=C(COC(N)=O)CS[C@@H]21", "note": "[FOX, cefoxitin]", "values": [{"measurement": "RLU", "setting": "[1]; [4]", "value": 3, "unit": "RLU"}, {"measurement": "S/B", "setting": "[1]; [4]", "value": 0}, {"measurement": "RLU", "setting": "[1]; [5]", "value": 53, "unit": "RLU"}, {"measurement": "S/B", "setting": "[1]; [5]", "value": 7}, {"measurement": "RLU", "setting": "[1]; [6]", "value": 6927, "unit": "RLU"}, {"measurement": "S/B", "setting": "[1]; [6]", "value": 433}, {"measurement": "RLU", "setting": "[1]; [7]", "value": 96650, "unit": "RLU"}, {"measurement": "S/B", "setting": "[1]; [7]", "value": 1255}, {"measurement": "RLU", "setting": "[1]; [8]", "value": 432, "unit": "RLU"}, {"measurement": "S/B", "setting": "[1]; [8]", "value": 8}, {"measurement": "RLU", "setting": "[1]; [9]", "value": 127000, "unit": "RLU"}, {"measurement": "S/B", "setting": "[1]; [9]", "value": 166}, {"measurement": "RLU", "setting": "[2]; [4]", "value": 10, "unit": "RLU"}, {"measurement": "S/B", "setting": "[2]; [4]", "value": 1}, {"measurement": "RLU", "setting": "[2]; [5]", "value": 6, "unit": "RLU"}, {"measurement": "S/B", "setting": "[2]; [5]", "value": 1}, {"measurement": "RLU", "setting": "[2]; [6]", "value": 18, "unit": "RLU"}, {"measurement": "S/B", "setting": "[2]; [6]", "value": 1}, {"measurement": "RLU", "setting": "[2]; [7]", "value": 80, "unit": "RLU"}, {"measurement": "S/B", "setting": "[2]; [7]", "value": 1}, {"measurement": "RLU", "setting": "[2]; [8]", "value": 103, "unit": "RLU"}, {"measurement": "S/B", "setting": "[2]; [8]", "value": 2}, {"measurement": "RLU", "setting": "[2]; [9]", "value": 988, "unit": "RLU"}, {"measurement": "S/B", "setting": "[2]; [9]", "value": 1}, {"measurement": "RLU", "setting": "[3]; [4]", "value": 12, "unit": "RLU"}, {"measurement": "S/B", "setting": "[3]; [4]", "value": 2}, {"measurement": "RLU", "setting": "[3]; [5]", "value": 20, "unit": "RLU"}, {"measurement": "S/B", "setting": "[3]; [5]", "value": 3}, {"measurement": "RLU", "setting": "[3]; [6]", "value": 63960, "unit": "RLU"}, {"measurement": "S/B", "setting": "[3]; [6]", "value": 3998}, {"measurement": "RLU", "setting": "[3]; [7]", "value": 79180, "unit": "RLU"}, {"measurement": "S/B", "setting": "[3]; [7]", "value": 1028}, {"measurement": "RLU", "setting": "[3]; [8]", "value": 9035, "unit": "RLU"}, {"measurement": "S/B", "setting": "[3]; [8]", "value": 177}, {"measurement": "RLU", "setting": "[3]; [9]", "value": 342000, "unit": "RLU"}, {"measurement": "S/B", "setting": "[3]; [9]", "value": 447}]}
